This is an account of results in patent US7109197B2, “N-phenyl-4-(4-pyridyl)-2-pyrimidineamine derivatives” (Syngenta Crop Protection, Inc., priority 2000, dated 2006).

One data set has as its system Erysiphe graminis. As to the kind of experiment: Assay B-6: Effect against Erysiphe graminis on barley (powdery mildew); residual protective / systemic activity. The class given is in vivo. Particulars: 0.02% active substance spray (residual) or 0.002% soil (systemic), variant not stated. The procedure: Assay B-6: Effect Against Erysiphe graminis on Barley (Powdery Mildew on Barley) a) Residual Protective Activity […] The infected plants are placed in a greenhouse at 22°. 12 days after infection, the fungal attack is evaluated. b) Systemic Activity […] […] 48 hours later, the plants are dusted with conidia of the fungus. The infected plants are placed in a greenhouse at 22° C. 12 days after infection, the disease incidence is evaluated.

Data set [1] relates to Botrytis cinerea. Put plainly: Assay B-8: Effect against Botrytis cinerea/tomato (Botrytis on tomatoes). The class given is in vivo. The conditions noted are these: Botrytis cinerea on tomato cv. Roter Gnom; 0.02% active substance, spray. The procedure:
Assay B-8: Effect Against Botrytis cinerea/Tomato (Botrytis on Tomatoes) 4 week old tomato plants cv. Roter Gnom are treated with the formulated testcompound 0.02% active substance) in a spray chamber. Two days after application tomato plants are inoculated by spraying a spore suspension (1×10^5 conidia/ml) on the test plants. After an incubation period of 4 days at 20° C. and 95% r. h. in a greenhouse the disease incidence is assessed.

For data set [2], the system named is Pyrenophora teres (Helminthosporium). Put plainly: Assay B-10: Effect against Pyrenophora teres (Helminthosporium)/barley (net blotch on barley). The class given is in vivo. The conditions noted are these: Pyrenophora teres on barley cv. Regina, 0.02% active substance, spray; for pest or weed control at 0.02 % strength: 96 h, read-out: B10 activity. The procedure:
Assay B-10: Effect Against Pyrenophora teres (Helminthosporium)/Barley (Net Blotch on Barley) 1 week old barley plants cv. Regina are treated with a formulated testcompound (0.02% active substance) in a spray chamber. Two days after application barley plants are inoculated by spraying a spore suspension (3×10^4 conidia/ml) on the test plants. After an incubation period of 2 days at 20° C. and 95% r.h. plants are kept for 2 days at 20° C. and 60% r.h. in a greenhouse. The disease incidence is assessed 4 days after inoculation.

The next data set deals with Septoria nodorum. Put plainly: Assay B-12: Effect against Septoria nodorum/wheat (Septoria leaf spot on wheat). Particulars: Septoria nodorum on wheat cv. Arina, 0.02% active substance, spray; for pest or weed control at 0.02 % strength: Parastagonospora nodorum, 264 h, read-out: B12 activity. Format: in vivo. The procedure:
Assay B-12: Effect Against Septoria nodorum/Wheat (Septoria Leaf Spot on Wheat) 1 week old wheat plants cv. Arina are treated with a formulated test compound (0.02% active substance) in a spray chamber. One day after application wheat plants are inoculated by spraying a spore suspension (5×10^5 conidia/ml) on the test plants. After an incubation period of 1 day at 20° C. and 95% r.h. plants are kept for 10 days at 20° C. and 60% r.h. in a greenhouse. The disease incidence is assessed 11 days after inoculation.

Data set [3] has as its system Botrytis cinerea. As to the kind of experiment: Assay B-7: Botrytis cinerea/grape (Botrytis on grapes). The class given is in vivo. The conditions noted are these: Botrytis cinerea on grape seedlings cv. Gutedel; 0.02% active substance, spray. The procedure:
Assay B-7: Botrytis cinerea/Grape (Botrytis on Grapes) 5 week old grape seedlings cv. Gutedel are treated with the formulated testcompound (0.02% active substance) in a spray chamber. Two days after application grape plants are inoculated by spraying a spore suspension (1×10^6 conidia/ml) on the test plants. After an incubation period of 4 days at 21° C. and 95% r. h. in a greenhouse the disease incidence is assessed.

For another data set, the system named is Pyricularia oryzae. Format: in vivo. Particulars: Pyricularia oryzae on rice cv. Sasanishiki; 0.02% active substance, spray.
The next data set deals with Venturia inaegualis. Put plainly: Assay B-5: Residual protective activity against Venturia inaegualis on apples (scab on apple). Format: in vivo. The conditions noted are these: Venturia inaegualis on apple seedlings cv. McIntosh; 0.02% active substance, spray. On the procedure: Assay B-5: Residual Protective Activity Against Venturia inaegualis on Apples (Scab on Apple) 4 week old apple seedlings cv. McIntosh are treated with the formulated testcompound (0.02% active substance) in a spray chamber. One day after application apple plants are inoculated by spraying a spore suspension (4×10^5 conidia/ml) on the test plants. After an incubation period of 4 days at 21° C. and 95% r. h. the plants are placed for 4 days at 21° C. and 60% r. h. in a greenhouse. After another 4 day incubation period at 21° C. and 95% r. h. the disease incidence is assessed.

Structures can show the parent of a compound that is named as a salt. Bounds are passed on as bounds.

The term melting point denotes the temperature of the solid-liquid transition. With `CC(C)Nc1cc(-c2ccnc(Nc3cccc(Cl)c3)n2)ccn1` (as salt: HCl) [Compound 82], the melting point was 88 to 89 °C.

For the compound `Clc1cccc(Nc2nccc(-c3ccnc(NCCCN4CCOCC4)c3)n2)c1` [Compound 8], the B6 activity entry in the data set on Erysiphe graminis is “+ (the activity observed in the corresponding test system is 70% or more)”. In the data set with Botrytis cinerea [1], the B8 activity entry is recorded as “+ (the activity observed in the corresponding test system is 70% or more)”.

`Clc1cccc(Nc2nccc(-c3ccnc(N4CCOCC4)c3)n2)c1` [Compound 17]: the melting point fell in the range of 175 to 176 °C.

Take `Clc1cccc(Nc2nccc(-c3ccnc(NCCN4CCOCC4)c3)n2)c1` [Compound 20]: the B6 activity result in the data set with Erysiphe graminis is “+ (the activity observed in the corresponding test system is 70% or more)”. For the same compound, the B8 activity entry in the data set on Botrytis cinerea [1] was “+ (the activity observed in the corresponding test system is 70% or more)”. Moreover, the B10 activity entry in data set [2] is listed as “+ (the activity observed in the corresponding test system is 70% or more)”. Further, the B12 activity entry with Septoria nodorum was “+ (the activity observed in the corresponding test system is 70% or more)”.

Consider `Clc1cccc(Nc2nccc(-c3ccnc(N4CCNCC4)c3)n2)c1` [Compound 21], for which the melting point lay in the range of 103 to 104 °C.

Compound `NNc1cc(-c2ccnc(Nc3cccc(Cl)c3)n2)ccn1` [Compound 22] gave a melting point of 201 to 203 °C. In data set [2], the pest or weed control at 0.02 % strength was > 70%.

`CC(CO)Nc1cc(-c2ccnc(Nc3cccc(Cl)c3)n2)ccn1` (centres unmarked) [Compound 39]: the B7 activity entry in the data set with Botrytis cinerea [3] is recorded as “+ (the activity observed in the corresponding test system is 70% or more)”. Moreover, the B8 activity entry in the data set with Botrytis cinerea [1] is “+ (the activity observed in the corresponding test system is 70% or more)”. Besides, in the data set on Pyricularia oryzae, the B9 activity entry is “+ (the activity observed in the corresponding test system is 70% or more)”. The B10 activity entry in data set [2] is on record as “+ (the activity observed in the corresponding test system is 70% or more)”. The B12 activity entry in the data set with Septoria nodorum is recorded as “+ (the activity observed in the corresponding test system is 70% or more)”.

In the case of `Clc1cccc(Nc2nccc(-c3ccnc(NCCCn4ccnc4)c3)n2)c1` [Compound 43], in the data set on Botrytis cinerea [3], the B7 activity result is “+ (the activity observed in the corresponding test system is 70% or more)”. The B8 activity entry in the data set on Botrytis cinerea [1] is on record as “+ (the activity observed in the corresponding test system is 70% or more)”. Moreover, in the data set on Pyricularia oryzae, the B9 activity result is “+ (the activity observed in the corresponding test system is 70% or more)”. The B10 activity entry in data set [2] is on record as “+ (the activity observed in the corresponding test system is 70% or more)”. The B12 activity result in the data set on Septoria nodorum was “+ (the activity observed in the corresponding test system is 70% or more)”.

Turning to `OCCCNc1cc(-c2ccnc(Nc3cccc(Cl)c3)n2)ccn1` [Compound 46], the B9 activity result with Pyricularia oryzae is reported as “+ (the activity observed in the corresponding test system is 70% or more)”. In addition, the B10 activity result in data set [2] is “+ (the activity observed in the corresponding test system is 70% or more)”. In addition, the B12 activity entry with Septoria nodorum was “+ (the activity observed in the corresponding test system is 70% or more)”.

The compound `CCNc1cc(-c2ccnc(Nc3cccc(Cl)c3)n2)ccn1` [Compound 60] returned a melting point of 201 °C. Further, the B5 activity entry in the data set on Venturia inaegualis is on record as “+ (the activity observed in the corresponding test system is 70% or more)”. For the same compound, the B7 activity result with Botrytis cinerea [3] is reported as “+ (the activity observed in the corresponding test system is 70% or more)”. Also, the B8 activity entry in the data set with Botrytis cinerea [1] is listed as “+ (the activity observed in the corresponding test system is 70% or more)”. The pest or weed control at 0.02 % strength in data set [2] was > 70%. Also, the pest or weed control at 0.02 % strength with Septoria nodorum was > 70%.

`O=C(Nc1cc(-c2ccnc(Nc3cccc(Cl)c3)n2)ccn1)C(F)(F)F` [Compound 63] showed a melting point of 180 to 181 °C. The B5 activity entry in the data set on Venturia inaegualis is recorded as “+ (the activity observed in the corresponding test system is 70% or more)”. Further, the B7 activity entry in the data set with Botrytis cinerea [3] was “+ (the activity observed in the corresponding test system is 70% or more)”. In the data set with Botrytis cinerea [1], the B8 activity result was “+ (the activity observed in the corresponding test system is 70% or more)”. Also, the B9 activity result with Pyricularia oryzae is recorded as “+ (the activity observed in the corresponding test system is 70% or more)”. The pest or weed control at 0.02 % strength in data set [2] is > 70%. In addition, the pest or weed control at 0.02 % strength in the data set with Septoria nodorum is > 70%.

`CNc1cc(-c2ccnc(Nc3cccc(Cl)c3)n2)ccn1` [Compound 64] came in with a melting point of 196 to 197 °C. Further, the B8 activity result with Botrytis cinerea [1] was “+ (the activity observed in the corresponding test system is 70% or more)”. For the same compound, in data set [2], the pest or weed control at 0.02 % strength is > 70%. The pest or weed control at 0.02 % strength with Septoria nodorum is > 70%.

On to `C=CCNc1cc(-c2ccnc(Nc3cccc(Cl)c3)n2)ccn1` [Compound 69], for which the B5 activity result in the data set with Venturia inaegualis is recorded as “+ (the activity observed in the corresponding test system is 70% or more)”. In addition, in the data set on Botrytis cinerea [3], the B7 activity result is on record as “+ (the activity observed in the corresponding test system is 70% or more)”. The B8 activity entry in the data set on Botrytis cinerea [1] is listed as “+ (the activity observed in the corresponding test system is 70% or more)”. Moreover, the B10 activity entry in data set [2] was “+ (the activity observed in the corresponding test system is 70% or more)”. In the data set on Septoria nodorum, the B12 activity result was “+ (the activity observed in the corresponding test system is 70% or more)”.

For `CC(C)(C)Nc1cc(-c2ccnc(Nc3cccc(Cl)c3)n2)ccn1` [Compound 70], the melting point lay within 125 to 126 °C. For the same compound, the B8 activity result in the data set with Botrytis cinerea [1] is “+ (the activity observed in the corresponding test system is 70% or more)”. Moreover, in data set [2], the pest or weed control at 0.02 % strength is > 70%. In addition, the pest or weed control at 0.02 % strength in the data set on Septoria nodorum was > 70%.

Consider `Clc1cccc(Nc2nccc(-c3ccnc(NCC4CCCO4)c3)n2)c1` (centres unmarked) [Compound 75], for which the B5 activity entry in the data set with Venturia inaegualis is on record as “+ (the activity observed in the corresponding test system is 70% or more)”. In addition, the B7 activity entry with Botrytis cinerea [3] is recorded as “+ (the activity observed in the corresponding test system is 70% or more)”. Besides, the B8 activity entry in the data set with Botrytis cinerea [1] was “+ (the activity observed in the corresponding test system is 70% or more)”. In addition, the B10 activity result in data set [2] is on record as “+ (the activity observed in the corresponding test system is 70% or more)”. For the same compound, the B12 activity result with Septoria nodorum was “+ (the activity observed in the corresponding test system is 70% or more)”.

In turn, `CCC(=O)Nc1cc(-c2ccnc(Nc3cccc(Cl)c3)n2)ccn1` [Compound 96] showed a melting point of 215 to 216 °C. The B5 activity result in the data set with Venturia inaegualis was “+ (the activity observed in the corresponding test system is 70% or more)”. The pest or weed control at 0.02 % strength in data set [2] was > 70%. In addition, in the data set on Septoria nodorum, the pest or weed control at 0.02 % strength was > 70%.

On to `CCOC(=O)Nc1cc(-c2ccnc(Nc3cccc(Cl)c3)n2)ccn1` [Compound 121], for which the B9 activity entry in the data set with Pyricularia oryzae was “+ (the activity observed in the corresponding test system is 70% or more)”. Moreover, the B10 activity result in data set [2] is listed as “+ (the activity observed in the corresponding test system is 70% or more)”.

For the compound `Cl.Clc1cccc(Nc2nccc(-c3ccnc(NC4CCOC4)c3)n2)c1` (centres unmarked) [Compound 125], the B8 activity result in the data set with Botrytis cinerea [1] is on record as “+ (the activity observed in the corresponding test system is 70% or more)”. The B9 activity entry in the data set on Pyricularia oryzae is “+ (the activity observed in the corresponding test system is 70% or more)”. In data set [2], the B10 activity entry is “+ (the activity observed in the corresponding test system is 70% or more)”. Besides, the B12 activity entry in the data set with Septoria nodorum is given as “+ (the activity observed in the corresponding test system is 70% or more)”.
